Results taken from US12077503B2, “Substituted cyclic amides and their use as herbicides” (FMC CORPORATION, priority 2015, dated 2024).

Assays:
Format in all cases: in vivo
[1] = test system: velvetleaf (Abutilon theophrasti); assay: Test G Post-Emergence Protocol; details: Abutilon theophrasti, post-emergence, 312 h; for pest or weed control at 15.625 g/ha: 15.625 g ai/ha, evaluated after 13 days (100=total damage to plant; 0=no damage to plant), read-out: Velvetleaf damage rating; for pest or weed control at 62.5 g/ha: 62.5 g ai/ha, read-out: Velvetleaf damage rating (100=total damage to plant; 0=no damage to plant); for pest or weed control at 62.5 g/ha / pest or weed control at 250 g/ha: evaluated after 13 days; for pest or weed control at 250 g/ha: 250 g ai/ha, read-out: damage to plant, Velvetleaf (100=total damage to plant; 0=no damage to plant)
Summary of the method: (§1)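 A glasshouse post-emergence test: 8-day-old plants sprayed at 15.625, 62.5 or 250 g/ha, then grown at 24/16 °C day/night with 14 h light and 65% humidity. Damage rated 13 days later, 0–100.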

[2] = test system: ivy-leaved morning glory (Ipomoea hederacea); assay: Test G Post-Emergence Protocol; details: Ipomoea, post-emergence, 312 h; for pest or weed control at 15.625 g/ha: 15.625 g ai/ha, evaluated after 13 days (100=total damage to plant; 0=no damage to plant), read-out: Morningglory, Ivy-leaved damage rating; for pest or weed control at 62.5 g/ha: 62.5 g ai/ha, read-out: Morningglory, Ivy-leaved damage rating (100=total damage to plant; 0=no damage to plant); for pest or weed control at 62.5 g/ha / pest or weed control at 250 g/ha: evaluated after 13 days; for pest or weed control at 250 g/ha: 250 g ai/ha, read-out: damage to plant, Morningglory, Ivy-leaved (100=total damage to plant; 0=no damage to plant)
Summary of the method: as §1

[3] = test system: barnyardgrass (Echinochloa crus-galli); assay: Test G Post-Emergence Protocol; details: Echinochloa crus-galli, post-emergence, 312 h; for pest or weed control at 15.625 g/ha: 15.625 g ai/ha, evaluated after 13 days (100=total damage to plant; 0=no damage to plant), read-out: Barnyardgrass damage rating; for pest or weed control at 62.5 g/ha: 62.5 g ai/ha, read-out: Barnyardgrass damage rating (100=total damage to plant; 0=no damage to plant); for pest or weed control at 62.5 g/ha / pest or weed control at 250 g/ha: evaluated after 13 days; for pest or weed control at 250 g/ha: 250 g ai/ha, read-out: damage to plant, Barnyardgrass (100=total damage to plant; 0=no damage to plant)
Summary of the method: as §1

[4] = test system: corn (Zea mays); assay: Test G Post-Emergence Protocol; details: Zea mays, post-emergence, 312 h; for plant injury at 15.625 g/ha: 15.625 g ai/ha, evaluated after 13 days (100=total damage to plant; 0=no damage to plant), read-out: Corn damage rating; for plant injury at 62.5 g/ha: 62.5 g ai/ha, read-out: Corn damage rating (100=total damage to plant; 0=no damage to plant); for plant injury at 62.5 g/ha / plant injury at 250 g/ha: evaluated after 13 days; for plant injury at 250 g/ha: 250 g ai/ha, read-out: damage to plant, Corn (100=total damage to plant; 0=no damage to plant)
Summary of the method: as §1

[5] = test system: redroot pigweed (Amaranthus retroflexus); assay: Test G Post-Emergence Protocol; details: Amaranthus retroflexus, post-emergence, 312 h; for pest or weed control at 15.625 g/ha: 15.625 g ai/ha, evaluated after 13 days (100=total damage to plant; 0=no damage to plant), read-out: Pigweed, Redroot damage rating; for pest or weed control at 62.5 g/ha: 62.5 g ai/ha, read-out: Pigweed, Redroot damage rating (100=total damage to plant; 0=no damage to plant); for pest or weed control at 62.5 g/ha / pest or weed control at 250 g/ha: evaluated after 13 days; for pest or weed control at 250 g/ha: 250 g ai/ha, read-out: damage to plant, Pigweed, Redroot (100=total damage to plant; 0=no damage to plant)
Summary of the method: as §1

[6] = test system: giant foxtail (Setaria faberi); assay: Test G Post-Emergence Protocol; details: Setaria faberi, post-emergence, 312 h; for pest or weed control at 15.625 g/ha: 15.625 g ai/ha, evaluated after 13 days (100=total damage to plant; 0=no damage to plant), read-out: Foxtail, Giant damage rating; for pest or weed control at 62.5 g/ha: 62.5 g ai/ha, read-out: Foxtail, Giant damage rating (100=total damage to plant; 0=no damage to plant); for pest or weed control at 62.5 g/ha / pest or weed control at 250 g/ha: evaluated after 13 days; for pest or weed control at 250 g/ha: 250 g ai/ha, read-out: damage to plant, Foxtail, Giant (100=total damage to plant; 0=no damage to plant)
Summary of the method: as §1

[7] = test system: velvetleaf (Abutilon theophrasti); assay: Test G Pre-Emergence Protocol; details: Abutilon theophrasti, pre-emergence, 312 h, evaluated after 13 days; for pest or weed control at 15.625 g/ha: 15.625 g ai/ha; for pest or weed control at 15.625 g/ha / pest or weed control at 250 g/ha: read-out: Velvetleaf damage rating (100=total damage to plant; 0=no damage to plant); for pest or weed control at 62.5 g/ha: 62.5 g ai/ha, 100=total damage to plant, 0=no damage to plant, read-out: plant damage rating, Velvetleaf; for pest or weed control at 250 g/ha: 250 g ai/ha
Summary of the method: (§2)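 Glasshouse pre-emergence test: soil-sown seeds, sprayed after 1 d at 15.625, 62.5 or 250 g/ha. Conditions 24/16° C day/night, 14 h light, 65% humidity, watering twice daily. Rating 13 d post-spray (100 = total damage).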

[8] = test system: ivy-leaved morning glory (Ipomoea hederacea); assay: Test G Pre-Emergence Protocol; details: Ipomoea, pre-emergence, 312 h, evaluated after 13 days; for pest or weed control at 15.625 g/ha: 15.625 g ai/ha, read-out: Morning-glory, Ivy-leaved damage rating (100=total damage to plant; 0=no damage to plant); for pest or weed control at 62.5 g/ha: 62.5 g ai/ha, 100=total damage to plant, 0=no damage to plant, read-out: plant damage rating, Morningglory, Ivy-leaved; for pest or weed control at 250 g/ha: 250 g ai/ha, read-out: Morningglory, Ivy-leaved damage rating (100=total damage to plant; 0=no damage to plant)
Summary of the method: as §2

[9] = test system: barnyardgrass (Echinochloa crus-galli); assay: Test G Pre-Emergence Protocol; details: Echinochloa crus-galli, pre-emergence, 312 h, evaluated after 13 days; for pest or weed control at 15.625 g/ha: 15.625 g ai/ha, read-out: Barnyard grass damage rating (100=total damage to plant; 0=no damage to plant); for pest or weed control at 62.5 g/ha: 62.5 g ai/ha, 100=total damage to plant, 0=no damage to plant, read-out: plant damage rating, Barnyardgrass; for pest or weed control at 250 g/ha: 250 g ai/ha, read-out: Barnyardgrass damage rating (100=total damage to plant; 0=no damage to plant)
Summary of the method: as §2

[10] = test system: corn (Zea mays); assay: Test G Pre-Emergence Protocol; details: Zea mays, pre-emergence, 312 h, evaluated after 13 days; for plant injury at 15.625 g/ha: 15.625 g ai/ha; for plant injury at 15.625 g/ha / plant injury at 250 g/ha: read-out: Corn damage rating (100=total damage to plant; 0=no damage to plant); for plant injury at 62.5 g/ha: 62.5 g ai/ha, 100=total damage to plant, 0=no damage to plant, read-out: plant damage rating, Corn; for plant injury at 250 g/ha: 250 g ai/ha
Summary of the method: as §2

[11] = test system: redroot pigweed (Amaranthus retroflexus); assay: Test G Pre-Emergence Protocol; details: Amaranthus retroflexus, pre-emergence, 312 h, evaluated after 13 days; for pest or weed control at 15.625 g/ha: 15.625 g ai/ha; for pest or weed control at 15.625 g/ha / pest or weed control at 250 g/ha: read-out: Pigweed, Redroot damage rating (100=total damage to plant; 0=no damage to plant); for pest or weed control at 62.5 g/ha: 62.5 g ai/ha, 100=total damage to plant, 0=no damage to plant, read-out: plant damage rating, Pigweed, Redroot; for pest or weed control at 250 g/ha: 250 g ai/ha
Summary of the method: as §2

[12] = test system: giant foxtail (Setaria faberi); assay: Test G Pre-Emergence Protocol; details: Setaria faberi, pre-emergence, 312 h, evaluated after 13 days; for pest or weed control at 15.625 g/ha: 15.625 g ai/ha; for pest or weed control at 15.625 g/ha / pest or weed control at 250 g/ha: read-out: Foxtail, Giant damage rating (100=total damage to plant; 0=no damage to plant); for pest or weed control at 62.5 g/ha: 62.5 g ai/ha, 100=total damage to plant, 0=no damage to plant, read-out: plant damage rating, Foxtail, Giant; for pest or weed control at 250 g/ha: 250 g ai/ha
Summary of the method: as §2

SMILES | pest or weed control at 15.625 g/ha [1] [%] | pest or weed control at 62.5 g/ha [1] [%] | pest or weed control at 250 g/ha [1] [%] | pest or weed control at 15.625 g/ha [2] [%] | pest or weed control at 62.5 g/ha [2] [%] | pest or weed control at 250 g/ha [2] [%] | pest or weed control at 15.625 g/ha [3] [%] | pest or weed control at 62.5 g/ha [3] [%] | pest or weed control at 250 g/ha [3] [%] | plant injury at 15.625 g/ha [4] [%] | plant injury at 62.5 g/ha [4] [%] | plant injury at 250 g/ha [4] [%] | pest or weed control at 15.625 g/ha [5] [%] | pest or weed control at 62.5 g/ha [5] [%] | pest or weed control at 250 g/ha [5] [%] | pest or weed control at 15.625 g/ha [6] [%] | pest or weed control at 62.5 g/ha [6] [%] | pest or weed control at 250 g/ha [6] [%] | pest or weed control at 15.625 g/ha [7] [%] | pest or weed control at 62.5 g/ha [7] [%] | also measured
Cc1cc(NC(=O)[C@@H]2C(=O)N(C)C[C@H]2c2ccc(C(F)(F)F)cc2)no1 (racemic) [Compound 1556] | 0 | 0 | 0 | 0 | 0 | 0 | 0 | 0 | 20 | 0 | 0 | 0 | 0 | 0 | 0 | 0 | 0 | 0 | 0 | 0 | pest or weed control at 250 g/ha [7]: 0%; pest or weed control at 15.625 g/ha [8]: 0%; pest or weed control at 62.5 g/ha [8]: 0%; pest or weed control at 250 g/ha [8]: 0%; pest or weed control at 15.625 g/ha [9]: 0%; pest or weed control at 62.5 g/ha [9]: 0%; pest or weed control at 250 g/ha [9]: 0%; plant injury at 15.625 g/ha [10]: 0%; plant injury at 62.5 g/ha [10]: 0%; plant injury at 250 g/ha [10]: 0%; pest or weed control at 15.625 g/ha [11]: 0%; pest or weed control at 62.5 g/ha [11]: 0%; pest or weed control at 250 g/ha [11]: 20%; pest or weed control at 15.625 g/ha [12]: 0%; pest or weed control at 62.5 g/ha [12]: 0%; pest or weed control at 250 g/ha [12]: 0%
Cc1ccnc(NC(=O)[C@@H]2C(=O)N(C)C[C@H]2c2ccc(C(F)(F)F)cc2)n1 (racemic) [Compound 1557] | 0 | 0 | 10 | 0 | 0 | 0 | 0 | 20 | 20 | 0 | 0 | 20 | 0 | 0 | 0 | 0 | 0 | 10 | 0 | 0 | pest or weed control at 250 g/ha [7]: 0%; pest or weed control at 15.625 g/ha [8]: 0%; pest or weed control at 62.5 g/ha [8]: 0%; pest or weed control at 250 g/ha [8]: 0%; pest or weed control at 15.625 g/ha [9]: 0%; pest or weed control at 62.5 g/ha [9]: 0%; pest or weed control at 250 g/ha [9]: 10%; plant injury at 15.625 g/ha [10]: 0%; plant injury at 62.5 g/ha [10]: 0%; plant injury at 250 g/ha [10]: 10%; pest or weed control at 15.625 g/ha [11]: 0%; pest or weed control at 62.5 g/ha [11]: 0%; pest or weed control at 250 g/ha [11]: 0%; pest or weed control at 15.625 g/ha [12]: 0%; pest or weed control at 62.5 g/ha [12]: 0%; pest or weed control at 250 g/ha [12]: 20%
Cc1nnc(NC(=O)[C@@H]2C(=O)N(C)C[C@H]2c2ccc(C(F)(F)F)cc2)s1 (racemic) [Compound 1559] | 0 | 0 | 0 | 0 | 0 | 0 | 0 | 0 | 0 | 0 | 0 | 0 | 0 | 0 | 0 | 0 | 0 | 0 | 0 | 0 | pest or weed control at 250 g/ha [7]: 0%; pest or weed control at 15.625 g/ha [8]: 0%; pest or weed control at 62.5 g/ha [8]: 0%; pest or weed control at 250 g/ha [8]: 0%; pest or weed control at 15.625 g/ha [9]: 0%; pest or weed control at 62.5 g/ha [9]: 0%; pest or weed control at 250 g/ha [9]: 0%; plant injury at 15.625 g/ha [10]: 0%; plant injury at 62.5 g/ha [10]: 0%; plant injury at 250 g/ha [10]: 0%; pest or weed control at 15.625 g/ha [11]: 0%; pest or weed control at 62.5 g/ha [11]: 0%; pest or weed control at 250 g/ha [11]: 0%; pest or weed control at 15.625 g/ha [12]: 0%; pest or weed control at 62.5 g/ha [12]: 0%; pest or weed control at 250 g/ha [12]: 0%
